Reference: patent US7319109B2, “Farnesoid X receptor agonists” (Smith Kline Beecham Corporation, priority 2002, dated 2008)

Molecular target: T1, Human FXRα Ligand Binding Domain (FXRα LBD) (Homo sapiens, UniProt Q96RI1)
T1 construct: polyhistidine (N); made in house; host or cells: E. coli BL21 (DE3), pRSET-A vector
T1 sequence (Q96RI1 222-472 isoform Q96RI1-2): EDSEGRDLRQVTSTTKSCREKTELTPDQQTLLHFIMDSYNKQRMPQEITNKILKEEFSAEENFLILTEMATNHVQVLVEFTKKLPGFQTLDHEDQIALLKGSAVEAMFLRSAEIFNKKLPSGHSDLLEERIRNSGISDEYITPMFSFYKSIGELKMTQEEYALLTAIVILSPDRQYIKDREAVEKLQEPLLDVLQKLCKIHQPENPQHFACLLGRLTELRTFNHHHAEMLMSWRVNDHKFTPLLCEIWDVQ
Assay: FXR Affinity Binding Assay: ligand mediated cofactor peptide (SRC-1 LCD2, 676-700) interaction, time resolved fluorescence
Settings: FXRα LBD-APC / europium labeled SRC-1 peptide, TRF signal, at least 2 hours at room temperature; read-out: Activity (pEC50) (converted)

Compound	EC50 [nM]
CC(C)c1onc(-c2c(Cl)cccc2Cl)c1COc1ccc(N(C)S(=O)(=O)c2ccc(C(=O)O)cc2)c(Cl)c1 [Example 62, 4-{[(2-Chloro-4-{[3-(2,6-dichlorophenyl)-5-isopropylisoxazol-4-yl]methoxy}phenyl)-(methyl)amino]sulfonyl}benzoic acid]	< 100
Cc1cc(OCc2c(-c3c(Cl)cccc3Cl)noc2C(C)C)ccc1N(C)S(=O)(=O)c1ccc(C(=O)O)cc1 [Example 63, 4-{[(4-{[3-(2,6-Dichlorophenyl)-5-isopropylisoxazol-4-yl]methoxy}-2-methylphenyl)-(methyl)amino]sulfonyl}benzoic acid]	102 to 1000
CC(C)c1onc(-c2c(Cl)cccc2Cl)c1COc1ccc(N(C)S(=O)(=O)c2ccc(C(=O)O)cc2)cc1 [Example 64, 4-{[(4-{[3-(2,6-Dichlorophenyl)-5-isopropylisoxazol-4-yl]methoxy}phenyl)(methyl)-amino]sulfonyl}benzoic acid]	102 to 1000
CCN(c1ccc(OCc2c(-c3c(Cl)cccc3Cl)noc2C(C)C)cc1Cl)S(=O)(=O)c1ccc(C(=O)O)cc1 [Example 65, 4-{[(2-Chloro-4-{[3-(2,6-dichlorophenyl)-5-isopropylisoxazol-4-yl]methoxy}phenyl)-(ethyl)amino]sulfonyl}benzoic acid]	< 100
CCN(c1ccc(OCc2c(-c3c(Cl)cccc3Cl)noc2C(C)C)cc1C)S(=O)(=O)c1ccc(C(=O)O)cc1 [Example 66, 4-{[(4-{[3-(2,6-Dichlorophenyl)-5-isopropylisoxazol-4-yl]methoxy}-2-methylphenyl)-(ethyl)amino]sulfonyl}benzoic acid]	102 to 1000
CCN(c1ccc(OCc2c(-c3c(Cl)cccc3Cl)noc2C(C)C)cc1)S(=O)(=O)c1ccc(C(=O)O)cc1 [Example 67, 4-{[(4-{[3-(2,6-Dichlorophenyl)-5-isopropylisoxazol-4-yl]methoxy}phenyl)(ethyl)amino]-sulfonyl}benzoic acid]	102 to 1000
CC(C)c1onc(-c2ccccc2OC(F)(F)F)c1COc1ccc(NS(=O)(=O)c2cccc(C(=O)O)c2)c(Cl)c1 [Example 68, 3-({[2-Chloro-4-({5-isopropyl-3-[2-(trifluoromethoxy)phenyl]isoxazol-4-yl}methoxy)-phenyl]amino}sulfonyl)benzoic acid]	1020 to 10000
Cc1cc(OCc2c(-c3ccccc3OC(F)(F)F)noc2C(C)C)ccc1NS(=O)(=O)c1cccc(C(=O)O)c1 [Example 69, 3-({[4-({5-Isopropyl-3-[2-(trifluoromethoxy)phenyl]isoxazol-4-yl}methoxy)-2-methyl-phenyl]amino}sulfonyl)benzoic acid]	102 to 1000
COC(=O)c1cccc(S(=O)(=O)N(C)c2ccc(OCc3c(-c4ccccc4OC(F)(F)F)noc3C(C)C)cc2Cl)c1 [Example 70, Methyl 3-{[[2-chloro-4-({5-isopropyl-3-[2-(trifluoromethoxy)phenyl]-isoxazol-4-yl}methoxy)phenyl](methyl)amino]sulfonyl}benzoate]	102 to 1000
COC(=O)c1cccc(S(=O)(=O)N(C)c2ccc(OCc3c(-c4ccccc4OC(F)(F)F)noc3C(C)C)cc2C)c1 [Example 71, Methyl 3-{[[4-({5-isopropyl-3-[2-(trifluoromethoxy)phenyl]isoxazol-4-yl}methoxy)-2-methylphenyl](methyl)amino]sulfonyl}benzoate]	102 to 1000
CC(C)c1onc(-c2ccccc2OC(F)(F)F)c1COc1ccc(N(C)S(=O)(=O)c2cccc(C(=O)O)c2)c(Cl)c1 [Example 72, 3-{[[2-Chloro-4-({5-isopropyl-3-[2-(trifluoromethoxy)phenyl]isoxazol-4-yl}methoxy)-phenyl](methyl)amino]sulfonyl}benzoic acid]	102 to 1000
Cc1cc(OCc2c(-c3ccccc3OC(F)(F)F)noc2C(C)C)ccc1N(C)S(=O)(=O)c1cccc(C(=O)O)c1 [Example 73, 3-{[[4-({5-Isopropyl-3-[2-(trifluoromethoxy)phenyl]isoxazol-4-yl}methoxy)-2-methyl-phenyl](methyl)amino]sulfonyl}benzoic acid]	102 to 1000
CCc1onc(Cc2c(Cl)cccc2Cl)c1COc1ccc(N(C)S(=O)(=O)c2cccc(C(=O)O)c2)c(C)c1 [Example 74, 3-{[(4-{[3-(2,6-Dichlorobenzyl)-5-ethylisoxazol-4-yl]methoxy}-2-methylphenyl)(methyl)-amino]sulfonyl}benzoic acid]	102 to 1000
COC(=O)c1ccc(OCc2ccc(OCc3c(-c4c(Cl)cccc4Cl)noc3C(C)C)cc2Cl)cc1 [Example 75, Methyl 4-[(2-chloro-4-{[3-(2,6-dichlorophenyl)-5-isopropylisoxazol-4-yl]methoxy}benzyl)oxy]benzoate]	102 to 1000
COC(=O)c1cccc(OCc2ccc(OCc3c(-c4c(Cl)cccc4Cl)noc3C(C)C)cc2Cl)c1 [Example 76, Methyl 3-[(2-chloro-4-{[3-(2,6-dichlorophenyl)-5-isopropylisoxazol-4-yl]methoxy}benzyl)-oxy]benzoate]	102 to 1000
CC(C)c1onc(-c2c(Cl)cccc2Cl)c1COc1ccc(COc2cccc(C(=O)O)c2)c(Cl)c1 [Example 77, 3-[(2-Chloro-4-{[3-(2,6-dichlorophenyl)-5-isopropylisoxazol-4-yl]methoxy}benzyl)oxy]-benzoic acid]	< 100
CC(C)c1onc(-c2c(Cl)cccc2Cl)c1COc1ccc(CSc2cccc(C(=O)O)c2)c(Cl)c1 [Example 78, 3-[(2-Chloro-4-{[3-(2,6-dichlorophenyl)-5-isopropylisoxazol-4-yl]methoxy}benzyl)thio]-benzoic acid]	< 100
Cc1cc(OCc2c(-c3c(Cl)cccc3Cl)noc2C(C)C)ccc1COc1cccc(C(=O)O)c1 [Example 79, 3-[(4-{[3-(2,6-Dichlorophenyl)-5-isopropylisoxazol-4-yl]methoxy}-2-methylbenzyl)oxy]-benzoic acid]	< 100
Cc1cc(OCc2c(-c3c(Cl)cccc3Cl)noc2C(C)C)ccc1CSc1cccc(C(=O)O)c1 [Example 80, 3-[(4-{[3-(2,6-Dichlorophenyl)-5-isopropylisoxazol-4-yl]methoxy}-2-methylbenzyl)thio]-benzoic acid]	< 100
CC(C)c1onc(-c2c(Cl)cccc2Cl)c1COc1ccc(COc2ccc(C(=O)O)cc2)c(Cl)c1 [Example 81, 4-[(2-Chloro-4-{[3-(2,6-dichlorophenyl)-5-isopropylisoxazol-4-yl]methoxy}benzyl)oxy]benzoic acid]	< 100
CC(C)c1onc(-c2c(Cl)cccc2Cl)c1COc1ccc(CSc2ccc(C(=O)O)cc2)c(Cl)c1 [Example 82, 4-[(2-Chloro-{[3-(2,6-dichlorophenyl)-5-isopropylisoxazol-4-yl]methoxy}benzyl)thio]-benzoic acid]	102 to 1000
COC(=O)c1cccc(OCc2ccc(OCc3c(-c4ccccc4OC(F)(F)F)noc3C(C)C)cc2Cl)c1 [Example 83, Methyl 3-{[2-chloro-4-({5-isopropyl-3-[2-(trifluoromethoxy)-phenyl]isoxazol-4-yl}methoxy)benzyl]oxy}benzoate]	102 to 1000
COC(=O)c1cccc(OCc2ccc(OCc3c(-c4ccccc4OC(F)(F)F)noc3C(C)C)cc2C)c1 [Example 84, Methyl 3-{[4-({5-isopropyl-3-[2-(trifluoromethoxy)phenyl]isoxazol-4-yl}methoxy)-2-methylbenzyl]oxy}benzoate]	1020 to 10000
